Source: patent publication US20250101028A1, “HETEROCYCLIC COMPOUNDS, COMPOSITIONS THEREOF, AND METHODS OF TREATMENT THEREWITH” (BeiGene, Ltd., priority 2022, published 2025)

Target: T1, GST-tagged GDP-loaded KRAS G12V (amino acids 1-169) (Homo sapiens, UniProt P01116, G12V)
T1 construct: GST-tagged GDP-loaded KRAS G12V (amino acids 1-169); made in house; host or cells: E. coli
Assay: KRAS G12V probe displacement assay (TR-FRET)
Format: binding
Details: displacement of biotinylated probe 2 from GDP-loaded KRAS G12V
Method in brief: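 Probe displacement read as TR-FRET (665/620 nm) with anti-GST-Tb and streptavidin-XL665, IC50 from four-parameter logistic fit. Compound preincubated 1 h, 24 °C, with E. coli-expressed KRAS 1-169: WT at 3 nM with 60 nM probe 1, G12V at 2 nM with 2.5 nM probe 2, pH 7.5.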

T1 sequence (P01116 1-169 isoform P01116-2 G12V): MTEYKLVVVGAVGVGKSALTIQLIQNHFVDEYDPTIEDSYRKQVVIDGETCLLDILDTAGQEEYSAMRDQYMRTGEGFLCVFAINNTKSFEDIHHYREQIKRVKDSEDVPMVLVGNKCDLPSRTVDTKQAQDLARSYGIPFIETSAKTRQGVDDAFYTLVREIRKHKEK

Structure (SMILES)	IC50 [nM]
N#C[C@H]1CCCN(c2nc(OC[C@@]34CCCN3C[C@H](F)C4)nc3c(F)c(-c4ccc(F)c5sc(N)nc45)c(C(F)(F)F)cc23)C1 [Example 77, (3S)-1-(7-(2-amino-7-fluorobenzo[d]thiazol-4-yl)-8-fluoro-2-(((2R,7aS)-2-fluorotetrahydro-1H-pyrrolizin-7a(5H)-yl)methoxy)-6-(trifluoromethyl)quinazolin-4-yl)piperidine-3-carbonitrile]	17
Nc1nc2c(-c3c(C(F)(F)F)cc4c(N5CCC(O)CC5)nc(OC[C@@]56CCCN5C[C@H](F)C6)nc4c3F)ccc(F)c2s1 [Example 78, 1-(7-(2-amino-7-fluorobenzo[d]thiazol-4-yl)-8-fluoro-2-(((2R,7aS)-2-fluorotetrahydro-1H-pyrrolizin-7a(5H)-yl)methoxy)-6-(trifluoromethyl)quinazolin-4-yl)piperidin-4-ol]	3.3
C[C@]1(O)CCCN(c2nc(OC[C@@]34CCCN3C[C@H](F)C4)nc3c(F)c(-c4ccc(F)c5sc(N)nc45)c(C(F)(F)F)cc23)C1 [Example 79, (3S)-1-(7-(2-amino-7-fluorobenzo[d]thiazol-4-yl)-8-fluoro-2-(((2R,7aS)-2-fluorotetrahydro-1H-pyrrolizin-7a(5H)-yl)methoxy)-6-(trifluoromethyl)quinazolin-4-yl)-3-methylpiperidin-3-ol]	28
C[C@@]1(O)CCCN(c2nc(OC[C@@]34CCCN3C[C@H](F)C4)nc3c(F)c(-c4ccc(F)c5sc(N)nc45)c(C(F)(F)F)cc23)C1 [Example 80, (3R)-1-(7-(2-amino-7-fluorobenzo[d]thiazol-4-yl)-8-fluoro-2-(((2R,7aS)-2-fluorotetrahydro-1H-pyrrolizin-7a(5H)-yl)methoxy)-6-(trifluoromethyl)quinazolin-4-yl)-3-methylpiperidin-3-ol]	17
Nc1nc2c(-c3c(C(F)(F)F)cc4c(N5CCCCCC5)nc(OC[C@@]56CCCN5C[C@H](F)C6)nc4c3F)ccc(F)c2s1 [Example 81, 4-(4-(azepan-1-yl)-8-fluoro-2-(((2R,7aS)-2-fluorotetrahydro-1H-pyrrolizin-7a(5H)-yl)methoxy)-6-(trifluoromethyl)quinazolin-7-yl)-7-fluorobenzo[d]thiazol-2-amine]	4.9
N#CC1CCCCN(c2nc(OC[C@@]34CCCN3C[C@H](F)C4)nc3c(F)c(-c4ccc(F)c5sc(N)nc45)c(C(F)(F)F)cc23)C1 (stereo partly drawn) [Example 83, 1-(7-(2-amino-7-fluorobenzo[d]thiazol-4-yl)-8-fluoro-2-(((2R,7aS)-2-fluorotetrahydro-1H-pyrrolizin-7a(5H)-yl)methoxy)-6-(trifluoromethyl)quinazolin-4-yl)azepane-3-carbonitrile]	6.4
Nc1nc2c(-c3c(C(F)(F)F)cc4c(N5CCCC(O)CC5)nc(OC[C@@]56CCCN5C[C@H](F)C6)nc4c3F)ccc(F)c2s1 (stereo partly drawn) [Example 84, 1-(7-(2-amino-7-fluorobenzo[d]thiazol-4-yl)-8-fluoro-2-(((2R,7aS)-2-fluorotetrahydro-1H-pyrrolizin-7a(5H)-yl)methoxy)-6-(trifluoromethyl)quinazolin-4-yl)azepan-4-ol]	0.98
Nc1nc2c(-c3c(C(F)(F)F)cc4c(N5CCCC(CO)CC5)nc(OC[C@@]56CCCN5C[C@H](F)C6)nc4c3F)ccc(F)c2s1 (stereo partly drawn) [Example 85, (1-(7-(2-amino-7-fluorobenzo[d]thiazol-4-yl)-8-fluoro-2-(((2R,7aS)-2-fluorotetrahydro-1H-pyrrolizin-7a(5H)-yl)methoxy)-6-(trifluoromethyl)quinazolin-4-yl)azepan-4-yl)methanol]	2.3
CCN1CC2(CCN(c3nc(OC[C@@]45CCCN4C[C@H](F)C5)nc4c(F)c(-c5ccc(F)c6sc(N)nc56)c(C(F)(F)F)cc34)CC2)OC1=O [Example 88, 8-(7-(2-amino-7-fluorobenzo[d]thiazol-4-yl)-8-fluoro-2-(((2R,7aS)-2-fluorotetrahydro-1H-pyrrolizin-7a(5H)-yl)methoxy)-6-(trifluoromethyl)quinazolin-4-yl)-3-ethyl-1-oxa-3,8-diazaspiro[4.5]decan-2-one]	1.4
N#CCN1CC2(CCN(c3nc(OC[C@@]45CCCN4C[C@H](F)C5)nc4c(F)c(-c5ccc(F)c6sc(N)nc56)c(C(F)(F)F)cc34)CC2)OC1=O [Example 89, 2-(8-(7-(2-amino-7-fluorobenzo[d]thiazol-4-yl)-8-fluoro-2-(((2R,7aS)-2-fluorotetrahydro-1H-pyrrolizin-7a(5H)-yl)methoxy)-6-(trifluoromethyl)quinazolin-4-yl)-2-oxo-1-oxa-3,8-diazaspiro[4.5]decan-3-yl)acetonitrile]	2.4
Nc1nc2c(-c3c(C(F)(F)F)cc4c(N5CCC6(CC5)CN(CC(F)F)C(=O)O6)nc(OC[C@@]56CCCN5C[C@H](F)C6)nc4c3F)ccc(F)c2s1 [Example 90, 8-(7-(2-amino-7-fluorobenzo[d]thiazol-4-yl)-8-fluoro-2-(((2R,7aS)-2-fluorotetrahydro-1H-pyrrolizin-7a(5H)-yl)methoxy)-6-(trifluoromethyl)quinazolin-4-yl)-3-(2,2-difluoroethyl)-1-oxa-3,8-diazaspiro[4.5]decan-2-one]	4.2
Nc1nc2c(-c3c(C(F)(F)F)cc4c(N5CCC6(CC5)CN(CC(F)(F)F)C(=O)O6)nc(OC[C@@]56CCCN5C[C@H](F)C6)nc4c3F)ccc(F)c2s1 [Example 91, 8-(7-(2-amino-7-fluorobenzo[d]thiazol-4-yl)-8-fluoro-2-(((2R,7aS)-2-fluorotetrahydro-1H-pyrrolizin-7a(5H)-yl)methoxy)-6-(trifluoromethyl)quinazolin-4-yl)-3-(2,2,2-trifluoroethyl)-1-oxa-3,8-diazaspiro[4.5]decan-2-one]	3.8
Nc1nc2c(-c3c(C(F)(F)F)cc4c(N5CCC6(CC5)CN(CC5CC5)C(=O)O6)nc(OC[C@@]56CCCN5C[C@H](F)C6)nc4c3F)ccc(F)c2s1 [Example 92, 8-(7-(2-amino-7-fluorobenzo[d]thiazol-4-yl)-8-fluoro-2-(((2R,7aS)-2-fluorotetrahydro-1H-pyrrolizin-7a(5H)-yl)methoxy)-6-(trifluoromethyl)quinazolin-4-yl)-3-(cyclopropylmethyl)-1-oxa-3,8-diazaspiro[4.5]decan-2-one]	2.8
Nc1nc2c(-c3c(C(F)(F)F)cc4c(N5CCC6(CC5)CN(CCO)C(=O)O6)nc(OC[C@@]56CCCN5C[C@H](F)C6)nc4c3F)ccc(F)c2s1 [Example 93, 8-(7-(2-amino-7-fluorobenzo[d]thiazol-4-yl)-8-fluoro-2-(((2R,7aS)-2-fluorotetrahydro-1H-pyrrolizin-7a(5H)-yl)methoxy)-6-(trifluoromethyl)quinazolin-4-yl)-3-(2-hydroxyethyl)-1-oxa-3,8-diazaspiro[4.5]decan-2-one]	2.2
COCCN1CC2(CCN(c3nc(OC[C@@]45CCCN4C[C@H](F)C5)nc4c(F)c(-c5ccc(F)c6sc(N)nc56)c(C(F)(F)F)cc34)CC2)OC1=O [Example 94, 8-(7-(2-amino-7-fluorobenzo[d]thiazol-4-yl)-8-fluoro-2-(((2R,7aS)-2-fluorotetrahydro-1H-pyrrolizin-7a(5H)-yl)methoxy)-6-(trifluoromethyl)quinazolin-4-yl)-3-(2-methoxyethyl)-1-oxa-3,8-diazaspiro[4.5]decan-2-one]	2.5
Nc1nc2c(-c3c(C(F)(F)F)cc4c(N5CCC6(CCNC6=O)CC5)nc(OC[C@@]56CCCN5C[C@H](F)C6)nc4c3F)ccc(F)c2s1 [Example 95, 8-(7-(2-amino-7-fluorobenzo[d]thiazol-4-yl)-8-fluoro-2-(((2R,7aS)-2-fluorotetrahydro-1H-pyrrolizin-7a(5H)-yl)methoxy)-6-(trifluoromethyl)quinazolin-4-yl)-2,8-diazaspiro[4.5]decan-1-one]	2.7
Nc1nc2c(-c3c(C(F)(F)F)cc4c(N5CCC6(CC5)CNC(=O)C6)nc(OC[C@@]56CCCN5C[C@H](F)C6)nc4c3F)ccc(F)c2s1 [Example 96, 8-(7-(2-amino-7-fluorobenzo[d]thiazol-4-yl)-8-fluoro-2-(((2R,7aS)-2-fluorotetrahydro-1H-pyrrolizin-7a(5H)-yl)methoxy)-6-(trifluoromethyl)quinazolin-4-yl)-2,8-diazaspiro[4.5]decan-3-one]	1.5
CN1CC2(CCN(c3nc(OC[C@@]45CCCN4C[C@H](F)C5)nc4c(F)c(-c5ccc(F)c6sc(N)nc56)c(C(F)(F)F)cc34)CC2)CC1=O [Example 97, 8-(7-(2-amino-7-fluorobenzo[d]thiazol-4-yl)-8-fluoro-2-(((2R,7aS)-2-fluorotetrahydro-1H-pyrrolizin-7a(5H)-yl)methoxy)-6-(trifluoromethyl)quinazolin-4-yl)-2-methyl-2,8-diazaspiro[4.5]decan-3-one]	3.8
Nc1nc2c(-c3c(C(F)(F)F)cc4c(N5CCC6(CC5)CNC(=O)CO6)nc(OC[C@@]56CCCN5C[C@H](F)C6)nc4c3F)ccc(F)c2s1 [Example 98, 9-(7-(2-amino-7-fluorobenzo[d]thiazol-4-yl)-8-fluoro-2-(((2R,7aS)-2-fluorotetrahydro-1H-pyrrolizin-7a(5H)-yl)methoxy)-6-(trifluoromethyl)quinazolin-4-yl)-1-oxa-4,9-diazaspiro[5.5]undecan-3-one]	51
Nc1nc2c(-c3c(C(F)(F)F)cc4c(N5CCC6(CCNC(=O)O6)CC5)nc(OC[C@@]56CCCN5C[C@H](F)C6)nc4c3F)ccc(F)c2s1 [Example 99, 9-(7-(2-amino-7-fluorobenzo[d]thiazol-4-yl)-8-fluoro-2-(((2R,7aS)-2-fluorotetrahydro-1H-pyrrolizin-7a(5H)-yl)methoxy)-6-(trifluoromethyl)quinazolin-4-yl)-1-oxa-3,9-diazaspiro[5.5]undecan-2-one]	2.8
